From ChEMBL document CHEMBL1201862, “PubChem BioAssay data set” (2004)
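Test compounds were applied to cells in 96-well plates for 48 hours at 5 doses. Abbreviation: GI50, concentration required for 50% inhibition of growth.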 Active and inactive are the calls of the source. Cut-off read from the data, not from the text of the source: active = GI50 up to about 1.1 µM and inactive = higher.

How the values were obtained:
Test in all cases: DTP human tumour cell line panel, 48 h
[1] = test system: ACHN
[2] = test system: HCT-116
[3] = test system: CCRF-CEM
[4] = test system: U-251
[5] = test system: OVCAR-8
[6] = test system: HOP-92
[7] = test system: Malme-3M
[8] = test system: SK-MEL-28
[9] = test system: SN12C
[10] = test system: SNB-19
[11] = test system: HCC 2998
[12] = test system: SK-MEL-2
[13] = test system: NCI-H23
[14] = test system: NCI-H460
[15] = test system: LOX IMVI

Measured: GI50

COC(=O)C(=O)C(C(=O)C(=O)Nc1cc(C)ccc1C)c1nc2ccc(C(=O)c3ccccc3)cc2nc1O (stereo not given)
inactive: [1] > 100 µM | [2] > 100 µM | [3] 42.2 µM | [4] > 100 µM | [5] > 100 µM | [6] 45.8 µM | [7] > 100 µM | [8] > 10 µM | [9] > 100 µM | [10] > 100 µM | [11] > 100 µM | [12] > 100 µM | [13] > 100 µM

CC(C)N1CCOC(c2ccc(O)c(O)c2)C1 (stereo not given)
inactive: [1] > 100 µM | [14] > 100 µM | [3] > 100 µM | [5] > 100 µM | [6] > 100 µM | [7] > 100 µM | [8] > 100 µM | [9] > 100 µM | [10] > 100 µM | [11] > 100 µM | [15] > 100 µM | [12] > 100 µM | [13] > 100 µM

CC(C)(C)[C@H]1CO[C@]2(c3ccccc3)[C@@H]3C[C@@H]3C(=O)N12
inactive: [1] > 100 µM | [14] > 100 µM | [3] > 10 µM | [4] > 100 µM | [5] > 100 µM | [6] > 100 µM | [7] > 100 µM | [8] > 100 µM | [9] > 100 µM | [10] > 100 µM | [11] > 100 µM | [15] > 100 µM | [12] > 100 µM | [13] > 100 µM

NC(=S)N/N=C1/C(=O)N(c2ccc(Cl)cc2Cl)C(=O)C(=O)C1c1nc2ccccc2s1 (stereo not given)
inactive: [1] > 100 µM | [2] > 100 µM | [14] > 100 µM | [4] > 100 µM | [5] > 100 µM | [6] > 100 µM | [7] > 100 µM | [8] > 100 µM | [9] > 100 µM | [10] > 100 µM | [11] > 100 µM | [15] > 100 µM | [12] > 100 µM | [13] > 100 µM

COc1cc(Cl)cc(N(O)C(C)=O)c1OCc1ccccc1
inactive: [1] 63.4 µM | [2] 75.2 µM | [14] 48.1 µM | [3] 38.1 µM | [4] 80.4 µM | [5] 70.8 µM | [6] > 100 µM | [7] > 100 µM | [8] > 100 µM | [9] > 100 µM | [10] 80.9 µM | [11] > 100 µM | [15] 77.6 µM | [13] > 100 µM

CN(C(=O)C12C3C4C1C1C2C3C41I)C(C)(C)C (stereo not given)
inactive: [1] 98.9 µM | [2] 70.1 µM | [14] > 100 µM | [4] > 91.2 µM | [5] > 100 µM | [7] > 95.9 µM | [8] > 100 µM | [9] > 100 µM | [10] > 100 µM | [11] > 60 µM | [15] > 100 µM | [12] > 100 µM | [13] > 96.6 µM

N#CC(C(=O)/C(=N/NC(=O)c1ccccc1O)C(C#N)c1ccccc1)c1ccccc1 (stereo not given)
inactive: [1] > 100 µM | [2] > 100 µM | [14] > 100 µM | [4] > 100 µM | [5] > 100 µM | [6] > 100 µM | [7] > 100 µM | [8] > 100 µM | [9] > 100 µM | [11] > 100 µM | [15] > 100 µM | [12] > 100 µM | [13] > 100 µM

O=c1[nH]cnc2c(COCCO)c[nH]c12
inactive: [1] > 100 µM | [14] > 100 µM | [3] > 100 µM | [4] > 100 µM | [5] > 100 µM | [6] > 100 µM | [7] > 100 µM | [8] > 100 µM | [9] > 100 µM | [10] > 100 µM | [15] > 100 µM | [12] > 100 µM | [13] > 100 µM

COC(=O)C1=CC2C(=O)OC1CC2C#N (stereo not given)
inactive: [1] > 100 µM | [2] > 100 µM | [14] > 100 µM | [3] > 100 µM | [4] > 100 µM | [5] > 100 µM | [6] > 100 µM | [7] > 100 µM | [8] > 100 µM | [9] > 100 µM | [10] > 100 µM | [11] > 100 µM | [15] > 100 µM | [13] > 100 µM

CCOC(=O)c1c2ccc(/C=C/C(=O)OC)ccc-2c(C(=O)OCC)c1N
inactive: [1] > 100 µM | [14] > 100 µM | [3] > 100 µM | [6] > 100 µM | [7] > 100 µM | [8] 1.62 µM | [10] > 100 µM | [11] > 100 µM | [15] > 100 µM | [12] > 100 µM | [13] > 100 µM

CN(C)CC1CCC(CN(C)C)C1=NO (stereo not given)
inactive: [1] > 100 µM | [2] > 100 µM | [14] > 10 µM | [3] > 100 µM | [5] > 100 µM | [6] > 100 µM | [7] > 100 µM | [8] > 100 µM | [9] > 100 µM | [11] > 100 µM | [15] > 100 µM

NC(=S)N/N=C/C(=C/Nc1ccccc1)[N+](=O)[O-]
inactive: [1] > 100 µM | [2] > 100 µM | [3] > 100 µM | [5] > 100 µM | [6] > 100 µM | [7] > 100 µM | [8] > 100 µM | [9] > 100 µM | [10] > 100 µM | [15] > 100 µM | [12] > 100 µM | [13] > 100 µM

O=C(Nc1cc(Cl)cc(Cl)c1)/C(Cc1nc2ccccc2nc1O)=N/NC(=O)c1ccncc1
inactive: [1] > 100 µM | [2] > 100 µM | [14] > 100 µM | [3] > 100 µM | [4] > 100 µM | [5] > 100 µM | [6] 14.4 µM | [7] > 100 µM | [10] > 100 µM | [11] > 100 µM | [15] > 100 µM | [12] > 100 µM

c1cncc(C2c3[nH]c4ccccc4c3CCN2CCCN2CCCCC2)c1 (stereo not given)
inactive: [1] > 100 µM | [2] > 100 µM | [14] > 100 µM | [4] > 100 µM | [5] > 100 µM | [6] > 100 µM | [7] 29.7 µM | [8] 20.3 µM | [9] > 100 µM | [10] > 100 µM | [11] > 100 µM | [15] > 100 µM | [12] > 100 µM | [13] > 100 µM

O=C1c2ccccc2C(=O)c2[nH]c(Cc3ccc(F)cc3)nc21
inactive: [1] 14.2 µM | [2] 19.5 µM | [14] 15.2 µM | [3] 24.6 µM | [4] 22.6 µM | [5] 17.4 µM | [6] 19.9 µM | [7] 14.5 µM | [8] 18.7 µM | [9] 22 µM | [10] 24.4 µM | [11] 26.2 µM | [12] 13.9 µM | [13] > 10 µM
